Drawing on publication PMC2647841, “Sulfatide Recognition by Colonization Factor Antigen CS6 from Enterotoxigenic Escherichia coli” (PLoS ONE, 2009), this text covers half-maximal binding for one substance.

In this assay the target is T1, CS6 protein (coli surface antigen 6; CS6 adhesin) (Escherichia coli, UniProt P53510).
T1 construct: gene cssB; CS6 complex (CssA and CssB structural subunits; operon cssA-cssD, recombinant plasmid pJT-CS6), no tag stated; secreted by E. coli TOP10-CS6, ammonium sulfate precipitate of culture supernatant; 125I-labelled; with CS6 fimbrial subunit A
T1 sequence (P53508 19-154): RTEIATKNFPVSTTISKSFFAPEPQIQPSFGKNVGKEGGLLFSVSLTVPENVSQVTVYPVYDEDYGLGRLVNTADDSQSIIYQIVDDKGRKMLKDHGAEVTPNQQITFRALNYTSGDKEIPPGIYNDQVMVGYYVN
T1 sequence (P53510 22-167): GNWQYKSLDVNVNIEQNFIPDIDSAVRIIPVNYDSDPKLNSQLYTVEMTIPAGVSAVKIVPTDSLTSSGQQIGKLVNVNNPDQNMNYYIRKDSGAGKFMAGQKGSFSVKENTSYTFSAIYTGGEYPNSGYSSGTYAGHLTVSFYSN
Nature of the assay: microtiter well binding of […]-labelled CS6 to coated glycosphingolipid. Conditions: amount of glycosphingolipid coated per well, not a concentration; room temperature, 4 h.

Consider Sulfatide [compound 3], for which the half-maximal binding was ~ 100 ng.
